Our source for the Km values is PMC8879444, “Neofunctionalization of Glycolytic Enzymes: An Evolutionary Route to Plant Parasitism in the Oomycete Phytophthora nicotianae” (Microorganisms, 2022).

Like-named read-outs stand apart in the source and are kept apart here.

The subject of the assay is GKI (PPTG_18934). To be noted: pH 8.0, phosphate buffer.

As for `OC[C@H]1OC(O)[C@H](O)[C@@H](O)[C@@H]1O` (some centres unmarked) [Glucose], under “read-out: Km / Glucose, substrate inhibition at glucose >= 1 mM”, the Km was determined as 40.5 ± 5 µM. As to `Nc1ncnc2c1ncn2[C@@H]1O[C@H](COP(=O)(O)OP(=O)(O)OP(=O)(O)O)[C@@H](O)[C@H]1O` [ATP], the Km (read-out: Km / ATP, co-substrate glucose) turned out to be 700 ± 50 µM.
